Results from patent US20030018025A1, “Certain 4-aminomethyl-2-substituted imidazole derivatives and 2-aminomethyl-4-substituted imidazole derivatives: new classes of dopamine receptor subtype specific ligands” (Neurogen Corporation, Corporation of the State of Delaware, priority 1995, published 2003).
Structures can show the parent of a compound that is named as a salt.

**Q.** With `c1ccc(CC2CCN(CC3CCCc4[nH]c(-c5ccccc5)nc43)CC2)cc1` (stereo not drawn) [Compound 138, 2-phenyl-7-[(4-benzyl-piperidin-1-yl)-methyl]-4,5,6,7-tetrahydrobenzimidazole] as the compound, how does the melting point read?
**A.** The melting point was 189 to 191 °C.

**Q.** For `COc1ccc(Br)cc1-c1ncc(CN(C)C)[nH]1` (as salt: hydrochloride) [Compound 1, 2-(5-bromo-2-methoxyphenyl)-4(5)-[(N,N-dimethyl)aminomethyl]-imidazole dihydrochloride], which melting point is on record?
**A.** The melting point was 242 to 243 °C.

**Q.** With `c1ccc(-c2ncc(CN3CCC(c4ccccc4)CC3)[nH]2)cc1` (as salt: hydrochloride) [Compound 26, 2-Phenyl-4(5)-[(4-phenyl-piperidin-1-yl)-methyl]-imidazole dihydrochloride] as the compound, how does the melting point read?
**A.** Its melting point is 238 to 240 °C.

**Q.** With `Fc1ccnc(N2CCN(Cc3cnc(-c4ccccc4)[nH]3)CC2)n1` (as salt: hydrochloride) [Compound 58, 2-Phenyl-4(5)-[(4-(4-fluoro-2-pyrimidinyl)-piperazin-1yl)-methyl]imidazole dihydrochloride] as the compound, how does the melting point read?
**A.** Its melting point is 188 to 190 °C.

**Q.** Which melting point does the source give for `c1ccc(-c2ncc(CCN3CCN(c4ncccn4)CC3)[nH]2)cc1` [Compound 143, 2-phenyl-4(5)-[(4-(2-pyrimidinyl)-piperazin-1-yl)-ethan-1-yl]-imidazole] here?
**A.** Its melting point is 142 to 144 °C.

**Q.** Which melting point does the source give for `O=C(/C=C/c1cnc(-c2ccccc2)[nH]1)N1CCN(c2ncccn2)CC1` [Compound 119, 2-phenyl-4(5)-[(4-(2-pyrimidinyl)-piperazin-1-yl)-propen-1-oyl]-imidazole] here?
**A.** Its melting point is 235 to 236 °C.

**Q.** Which melting point does the source give for `COc1cc(Br)cc(-c2ncc(CN(C)C)[nH]2)c1OC` (as salt: hydrochloride) [Compound 16, 2-(5-Bromo-2,3-dimethoxyphenyl)-4(5)-[(N,N-dimethyl)aminomethyl]-imidazole dihydrochloride] here?
**A.** The melting point was 194 °C.

**Q.** Which melting point does the source give for `Fc1ccc(N2CCN(Cc3cnc(-c4ccccc4)[nH]3)CC2)cc1` (as salt: hydrochloride) [Compound 56, 2-Phenyl-4(5)-[(4-(4-fluorophenyl)-piperazin-1-yl-)methyl]imidazole dihydrochloride] here?
**A.** The melting point was 64 to 68 °C.

**Q.** Which melting point does the source give for `Cc1ccc(Cl)cc1N1CCN(Cc2cnc(-c3ccccc3)[nH]2)CC1` (as salt: hydrochloride) [Compound 60, 2-Phenyl-4(5)-[(4(5-chloro-2-methylphenyl)-piperazin-1yl-)-methyl]imidazole dihydrochloride] here?
**A.** The melting point was 142 to 145 °C.

**Q.** With `c1ccc(CC2CCN(Cc3cnc(-c4cccc5ccccc45)[nH]3)CC2)cc1` [Compound 92, 2-(1-naphthyl)-4(5)-[(4-benzyl-piperidin-1-yl)-methyl]imidazole] as the compound, how does the melting point read?
**A.** The melting point was 81 to 83 °C.

**Q.** With `Cc1ccc(-c2ncc(CN3CCN(c4ncccn4)CC3)[nH]2)cc1` [Compound 133] as the compound, how does the melting point read?
**A.** The melting point was 178 to 180 °C.

**Q.** For `O=C(c1ccccc1)c1ncc(CN2CCN(c3ncccn3)CC2)[nH]1` [Compound 116, 2-(benzoyl)-4(5)-[(4-(2-pyrimidinyl)-piperazin-1-yl)-methyl]-imidazole], which melting point is on record?
**A.** The melting point was 177 to 179 °C.

**Q.** Which melting point does the source give for `O=C(c1cnc(-c2ccccc2)[nH]1)N1CCN(c2ncccn2)CC1` [Compound 144, 2-phenyl-4(5)-N-[(4-(2-pyrimidinyl)piperazin-1-yl)-carboxamido]-imidazole] here?
**A.** The melting point was 231 to 232 °C.

**Q.** Which melting point does the source give for `CCc1ccc(OC)c(-c2ncc(CN3CCN(c4ccccc4OC)CC3)[nH]2)c1` (as salt: hydrochloride) [Compound 55, 2-(5-Ethyl-2-methoxyphenyl-4(5)-[(4-(2-methoxyphenyl)-piperazin-1-yl)-methyl]-imidazoledihydrochloride] here?
**A.** Its melting point is 61 to 64 °C.

**Q.** With `Clc1ccc(N2CCN(Cc3cnc(-c4ccccc4)[nH]3)CC2)cc1Cl` [Compound 61, 2-Phenyl-4(5)-[(4(3,4-dichlorophenyl)-piperazin-1-yl-)methyl]imidazole] as the compound, how does the melting point read?
**A.** Its melting point is 179 to 181 °C.
